The values below come from article PMC7459591 (Marine Drugs, 2020).

One test relates to human Kv1.5 channel. The test is classed as cell-based.
Another test deals with human Kv1.4 channel. The test is classed as cell-based.

Each structure is given as a SMILES string.

With `CSCC[C@H](NC(=O)[C@@H]1CCCN1C(=O)CNC(=O)[C@H](CO)NC(=O)[C@@H](NC(=O)[C@H](C)N)[C@@H](C)O)C(=O)NCC(=O)N[C@@H](Cc1c[nH]c2ccccc12)C(=O)N[C@@H](CC(C)C)C(=O)N1CCC[C@H]1C(=O)N[C@H](C(=O)N[C@@H](Cc1ccccc1)C(=O)N[C@@H](Cc1ccc(O)cc1)C(=O)N[C@@H](CCCNC(=N)N)C(=O)N[C@@H](Cc1ccccc1)C(N)=O)C(C)C` [CNF-Sr3, Conorfamide-Sr3], the “Decrease of current, Kv1.5” value with human Kv1.5 channel is listed as “less than 5%”. The “Decrease of current, Kv1.4” value in the test with human Kv1.4 channel is given as “less than 5%”.
